Measured values from patent US7160874B2, “Phenylalanine derivatives” (Ajinomoto Co., Inc., priority 1999, dated 2007).
pIC50: −log10 of the molar value.

Columns and labels:
[1] = target: T1, integrin α4β7 (Homo sapiens, UniProt P13612+P26010); assay: VCAM antagonistic activity (VCAM-1/α4β7 binding assay); assay type: cell-based; settings: RPMI-8866 cells binding to VCAM-1; read-out: VCAM antagonistic activity (IC50) α4β7
T1 construct: lymphoma cell strain RPMI-8866 of human B cells, known to express integrin α4β7; endogenous in cells; host or cells: RPMI-8866 (human B lymphoma cell line)
T1 sequence (P13612 34-1032): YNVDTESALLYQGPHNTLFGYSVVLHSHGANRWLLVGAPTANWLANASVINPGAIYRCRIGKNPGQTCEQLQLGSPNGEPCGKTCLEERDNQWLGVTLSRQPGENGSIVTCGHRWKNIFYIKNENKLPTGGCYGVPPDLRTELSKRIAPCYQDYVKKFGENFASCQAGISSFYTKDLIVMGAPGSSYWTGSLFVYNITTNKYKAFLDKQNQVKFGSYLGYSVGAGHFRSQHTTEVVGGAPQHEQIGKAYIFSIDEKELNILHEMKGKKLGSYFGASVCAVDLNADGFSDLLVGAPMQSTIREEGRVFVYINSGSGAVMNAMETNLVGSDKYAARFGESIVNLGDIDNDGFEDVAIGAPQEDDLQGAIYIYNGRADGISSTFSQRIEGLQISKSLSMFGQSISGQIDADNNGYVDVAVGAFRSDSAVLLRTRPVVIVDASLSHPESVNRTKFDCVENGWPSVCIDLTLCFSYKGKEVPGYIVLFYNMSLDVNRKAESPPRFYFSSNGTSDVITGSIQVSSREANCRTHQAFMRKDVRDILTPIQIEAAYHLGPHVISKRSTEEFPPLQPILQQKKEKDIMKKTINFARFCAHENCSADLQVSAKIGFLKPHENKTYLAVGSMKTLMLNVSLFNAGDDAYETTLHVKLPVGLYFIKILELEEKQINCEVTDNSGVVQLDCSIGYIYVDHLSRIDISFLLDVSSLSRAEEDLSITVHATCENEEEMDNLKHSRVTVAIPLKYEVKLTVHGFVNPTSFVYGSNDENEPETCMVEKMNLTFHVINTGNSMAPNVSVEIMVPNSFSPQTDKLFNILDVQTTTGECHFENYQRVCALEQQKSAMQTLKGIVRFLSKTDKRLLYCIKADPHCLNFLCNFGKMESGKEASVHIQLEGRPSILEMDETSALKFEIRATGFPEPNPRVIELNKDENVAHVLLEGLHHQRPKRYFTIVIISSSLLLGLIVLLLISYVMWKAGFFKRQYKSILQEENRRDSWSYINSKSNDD
T1 sequence (P26010 20-798): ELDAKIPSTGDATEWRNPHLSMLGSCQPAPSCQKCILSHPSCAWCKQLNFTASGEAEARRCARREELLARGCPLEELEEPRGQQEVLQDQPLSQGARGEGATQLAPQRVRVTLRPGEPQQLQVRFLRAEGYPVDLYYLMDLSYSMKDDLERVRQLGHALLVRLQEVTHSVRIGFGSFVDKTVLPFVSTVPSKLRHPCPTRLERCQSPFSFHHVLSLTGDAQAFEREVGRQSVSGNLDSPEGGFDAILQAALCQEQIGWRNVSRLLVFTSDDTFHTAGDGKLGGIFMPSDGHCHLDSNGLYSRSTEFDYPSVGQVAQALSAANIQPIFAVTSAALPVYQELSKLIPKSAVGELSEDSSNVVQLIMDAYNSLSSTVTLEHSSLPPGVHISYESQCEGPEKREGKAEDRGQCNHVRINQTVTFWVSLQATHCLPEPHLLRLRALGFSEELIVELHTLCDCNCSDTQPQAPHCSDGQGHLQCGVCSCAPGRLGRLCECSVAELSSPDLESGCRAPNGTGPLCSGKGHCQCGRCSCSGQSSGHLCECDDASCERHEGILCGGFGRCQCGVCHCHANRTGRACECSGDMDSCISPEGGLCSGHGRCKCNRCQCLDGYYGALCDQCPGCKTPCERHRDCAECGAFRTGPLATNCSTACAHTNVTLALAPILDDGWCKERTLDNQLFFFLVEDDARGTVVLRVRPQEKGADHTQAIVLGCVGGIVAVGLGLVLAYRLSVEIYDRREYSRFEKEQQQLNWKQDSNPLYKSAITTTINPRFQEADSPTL
Description: (Test Example) VCAM Antagonistic Activity (VCAM-1/α4β7 Binding Assay):
The capacity of a test substance antagonistic to the binding of lymphoma cell strain RPMI-8866 of human B cells, known to express integrin α4β7, to VCAM-1 was determined.
(§1) 100 μl/well of a solution (500 ng/ml) of recombinant human VCAM-1 (R & D systems) solution diluted with buffer A (0.1 M NaHCO3, pH 9.6) was added to a micro titer plate having 96 wells (Nunc Maxisorp). After the incubation at 4° C. overnight, unbound VCAM-1 was removed by washing once with PBS. After completion of the washing, a buffer (buffer B) obtained by diluting Block Ace® (Dainippon Pharmaceutical Co., Ltd.) with PBS to 1/4 concentration was added in an amount of 150 μl/well. After the incubation at room temperature for 1 hour, buffer B was removed and the plate was washed with PBS once.
RPMI-8866 cells were incubated in Dulbecco modified Eagle medium containing 10 μg/ml of Calcein-AM (Wako Pure Chemical Industries, Ltd.) (SIGMA, hereinafter referred to as “DMEM”) at 37° C. for 30 minutes to label with fluorescence. The cells were again suspended in a binding buffer (20 mM HEPES, DMEM containing 0.1% BSA) containing 4 mM of MnCl2.
(§2) 50 μl of a test substance of various concentrations obtained by the dilution with the binding buffer was added to the plate. Immediately thereafter, 50 μl (final volume: 100 μl/well) of the fluorescent RPMI-8866 cells (4×10^6 cells/ml) were added thereto, and they were incubated at room temperature for 30 minutes. After the shaking on a plate shaker (IKA MTS-4) at 800 rpm for 30 seconds, the solution was immediately removed to remove the unbound cells. The fluorescence quantity of the bound cells remaining in the wells was determined with a fluorescent plate reader (Wallac 1420 ARVO multi-label counter) (filter excitation wave length: 485 nm, emission wave length: 535 nm). The fluorescent strength thus obtained is proportional to the number of RPMI-8866 cells bound to VCAM-1 and remaining on the plate. The binding rate of each test material in various concentrations was determined while the fluorescent strength of the test material-free well was determined to be 100%. The concentration IC50 for the 50% binding inhibition was calculated.
(§3) The activities were classified into group A wherein IC50 was 0.02 μmol/l or below, group B wherein IC50 was higher than 0.02 μmol/l and not above 0.1 μmol/l, group C wherein IC50 was higher than 0.1 μmol/l and not above 2 μmol/l, and group D wherein IC50 was higher than 2 μmol/l and not above 10 μmol/l.

[2] = target: T2, integrin α4β1 (Homo sapiens, UniProt P05556+P13612); assay: VCAM antagonist activity (VCAM-1/α4β1 binding assay); assay type: cell-based; settings: Jurkat cells binding to VCAM-1; read-out: VCAM antagonistic activity (IC50) α4β1
T2 construct: cell strain Jurkat (ATCC TIB-152) of human T cells, known to express integrin α4β1; host or cells: Jurkat (human T cell line)
T2 sequence (P05556 21-798, one chain of several): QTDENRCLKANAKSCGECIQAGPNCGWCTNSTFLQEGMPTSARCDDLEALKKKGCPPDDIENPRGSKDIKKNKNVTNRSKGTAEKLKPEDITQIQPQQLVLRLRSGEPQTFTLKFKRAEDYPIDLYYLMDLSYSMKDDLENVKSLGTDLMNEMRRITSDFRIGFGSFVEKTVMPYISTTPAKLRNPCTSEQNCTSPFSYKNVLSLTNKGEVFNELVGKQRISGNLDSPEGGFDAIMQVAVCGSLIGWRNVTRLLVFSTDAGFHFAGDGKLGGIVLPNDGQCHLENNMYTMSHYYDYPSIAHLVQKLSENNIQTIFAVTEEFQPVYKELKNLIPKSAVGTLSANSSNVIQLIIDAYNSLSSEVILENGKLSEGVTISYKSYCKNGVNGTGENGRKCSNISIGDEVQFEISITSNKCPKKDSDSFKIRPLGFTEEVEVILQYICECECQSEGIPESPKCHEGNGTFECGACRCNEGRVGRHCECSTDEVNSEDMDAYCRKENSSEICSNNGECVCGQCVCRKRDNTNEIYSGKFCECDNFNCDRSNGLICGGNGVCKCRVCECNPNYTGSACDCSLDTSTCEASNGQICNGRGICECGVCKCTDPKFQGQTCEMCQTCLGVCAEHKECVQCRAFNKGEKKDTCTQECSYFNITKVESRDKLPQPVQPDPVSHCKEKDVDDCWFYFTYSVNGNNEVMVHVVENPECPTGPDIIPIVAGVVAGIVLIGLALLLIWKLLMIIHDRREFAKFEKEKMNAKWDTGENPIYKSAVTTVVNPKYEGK
Description: (Test Example) VCAM Antagonist Activity (VCAM-1/α4β1 Binding Assay):
The capacity of a test substance antagonistic to the binding of cell strain Jurkat (ATCC TIB-152) of human T cells, known to express integrin α4β1, to VCAM-1 was determined.
as §1
Jurkat cells were washed with Dulbecco modified Eagle medium (SIGMA, hereinafter referred to as “DMEM”) twice and then incubated in DMEM containing 10 μg/ml of Calcein-AM (Wako Pure Chemical Industries, Ltd.) at 37° C. in dark place for 30 minutes to label with fluorescence. The cells were again suspended in a binding buffer (20 mM HEPES, DMEM containing 0.1% BSA).
as §2, with “Jurkat” for “RPMI-8866”
as §3

Row | Compound | pIC50 [1] | pIC50 [2]
1 | CCCC(CC)(C(=O)NC(Cc1ccc(OCc2c(Cl)cccc2Cl)cc1)C(=O)O)C(=O)N1CCCC1 (mixture of isomers) [Example 37] | 7.00 to 7.70 | 5.00 to 5.70
2 | CCC(C)(C(=O)NC(Cc1ccc(OCc2c(Cl)cccc2Cl)cc1)C(=O)O)C(=O)N1CCCC1 (mixture of isomers) [Example 38] | 5.70 to 7.00 | 5.70 to 7.00
3 | CCC(CCOC)(C(=O)NC(Cc1ccc(OCc2c(Cl)cccc2Cl)cc1)C(=O)O)C(=O)N1CCCC1 (mixture of isomers) [Example 43] | > 7.70 | 5.70 to 7.00
4 | CCC(CC)(C(=O)NC(Cc1ccc(OCc2c(Cl)cccc2Cl)cc1)C(=O)O)C(=O)N1CCC(N)C1 (mixture of isomers) [Example 47] | > 7.70 | 5.70 to 7.00
5 | CCC(CC)(C(=O)NC(Cc1ccc(OCc2c(Cl)cccc2Cl)cc1)C(=O)O)C(=O)N1CCCC(O)C1 (mixture of isomers) [Example 48] | 7.00 to 7.70 | 5.70 to 7.00
6 | CCC(CC)(C(=O)NC(Cc1ccc(OCc2c(Cl)cccc2Cl)cc1)C(=O)O)C(=O)N1CCCCC1C(N)=O (mixture of isomers) [Example 51] | 7.00 to 7.70 | 5.70 to 7.00
7 | CCC(CC)(C(=O)NC(Cc1ccc(OCc2c(Cl)cccc2Cl)cc1)C(=O)O)C(=O)N1CCCC(CO)C1 (mixture of isomers) [Example 60] | 5.70 to 7.00 | 5.70 to 7.00
8 | CCC(CC)(C(=O)N[C@@H](Cc1ccc(OCc2c(Cl)cccc2Cl)cc1)C(=O)O)C(=O)N1C[C@@H](O)[C@H](O)C1 (relative stereo) [Example 83, N-(2-{[(trans-3,4-dihydroxypyrrolidine)-1-yl]carbonyl}-2-ethyl-butanoyl)-O-(2,6-dichlorobenzyl)-L-tyrosine] | > 7.70 | 7.00 to 7.70
9 | CN(C)C(=O)C(C)(C)C(=O)N[C@@H](Cc1ccc(OCc2c(Cl)cccc2Cl)cc1)C(=O)O [Example 2, N-[2-(dimethylaminocarbonyl)-2-methyl-propanoyl]-O-(2,6-dichlorobenzyl)-L-tyrosine] | 7.00 to 7.70 | 5.70 to 7.00
10 | CCC(CC)(C(=O)N[C@@H](Cc1ccc(OCc2c(Cl)cccc2Cl)cc1)C(=O)O)C(=O)N(C)C [Example 3] | > 7.70 | 5.70 to 7.00
11 | CCC(CC)(C(=O)Nc1ccc(O)cc1)C(=O)N[C@@H](Cc1ccc(OCc2c(Cl)cccc2Cl)cc1)C(=O)O [Example 5] | 5.70 to 7.00 | 5.70 to 7.00
12 | CCC(CC)(C(=O)NCCc1ccc(O)cc1)C(=O)N[C@@H](Cc1ccc(OCc2c(Cl)cccc2Cl)cc1)C(=O)O [Example 6] | 5.70 to 7.00 | 5.00 to 5.70
13 | CCC(CC)(C(=O)N[C@@H](Cc1ccc(OCc2c(Cl)cccc2Cl)cc1)C(=O)O)C(=O)N1CCN(c2ccc(O)cc2)CC1 [Example 7] | 5.70 to 7.00 | 5.70 to 7.00
14 | CN(C)C(=O)C1(C(=O)N[C@@H](Cc2ccc(OCc3c(Cl)cccc3Cl)cc2)C(=O)O)CCCC1 [Example 8] | 5.70 to 7.00 | 5.70 to 7.00
15 | O=C(O)[C@H](Cc1ccc(OCc2c(Cl)cccc2Cl)cc1)NC(=O)C1(C(=O)N2CCN(c3ccc(O)cc3)CC2)CCCC1 [Example 9] | 5.70 to 7.00 | 5.70 to 7.00
16 | CCC(CC)(C(=O)N[C@@H](Cc1ccc(OCc2c(Cl)cccc2Cl)cc1)C(=O)O)C(=O)N1CCCCC1 [Example 17] | 5.70 to 7.00 | 5.70 to 7.00
17 | CN(C)C(=O)C1(C(=O)N[C@@H](Cc2ccc(OCc3c(Cl)cccc3Cl)cc2)C(=O)O)CC1 [Example 21] | 5.70 to 7.00 | 5.00 to 5.70
18 | CN(C(=O)C1(C(=O)N[C@@H](Cc2ccc(OCc3c(Cl)cccc3Cl)cc2)C(=O)O)CC1)c1ccccc1 [Example 23] | 5.70 to 7.00 | 5.00 to 5.70
19 | CN(C)C(=O)C1(C(=O)N[C@@H](Cc2ccc(OCc3c(Cl)cccc3Cl)cc2)C(=O)O)CCC1 [Example 29] | 5.70 to 7.00 | 5.70 to 7.00
20 | CCC(CC)(C(=O)N[C@@H](Cc1ccc(OCc2c(Cl)cccc2Cl)cc1)C(=O)O)C(=O)N1CCCC1 [Example 32] | 7.00 to 7.70 | 5.70 to 7.00
21 | CC(C)(C(=O)N[C@@H](Cc1ccc(OCc2c(Cl)cccc2Cl)cc1)C(=O)O)C(=O)N1CCCC1 [Example 33] | 7.00 to 7.70 | 5.70 to 7.00
22 | CCC(CC)(C(=O)N[C@@H](Cc1ccc(OCc2c(Cl)cccc2Cl)cc1)C(=O)O)C(=O)N1CCOCC1 [Example 34] | 7.00 to 7.70 | 5.70 to 7.00
